Source: patent publication US8076338B2, “Kinase modulators and methods of use” (Exelixis, Inc., priority 2004, dated 2011)
Where two headings read alike, the source gives them in different places.

Experiments:
AktK = AktK (Homo sapiens, UniProt P31749); assay: Luciferase-coupled chemiluminescence kinase assay (ATP consumption); format: biochemical; conditions: read-out: AKT-1 IC50
Summary of the method: (§1)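 Activity is read as ATP depletion: luciferase-luciferin reagent added after a 3 h ambient-temperature kinase reaction, with total ATP use limited to 25-60%. Before ATP addition, 2.5-5 nM kinase and compound were preincubated 30 min in Tris pH 7.5/MgCl2/TX-100/DTT buffer; […].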

p70S6K = p70S6K (Homo sapiens, UniProt P23443); assay: as above; format: biochemical
Summary of the method: as §1

AktK, sequence (P31749 whole entry): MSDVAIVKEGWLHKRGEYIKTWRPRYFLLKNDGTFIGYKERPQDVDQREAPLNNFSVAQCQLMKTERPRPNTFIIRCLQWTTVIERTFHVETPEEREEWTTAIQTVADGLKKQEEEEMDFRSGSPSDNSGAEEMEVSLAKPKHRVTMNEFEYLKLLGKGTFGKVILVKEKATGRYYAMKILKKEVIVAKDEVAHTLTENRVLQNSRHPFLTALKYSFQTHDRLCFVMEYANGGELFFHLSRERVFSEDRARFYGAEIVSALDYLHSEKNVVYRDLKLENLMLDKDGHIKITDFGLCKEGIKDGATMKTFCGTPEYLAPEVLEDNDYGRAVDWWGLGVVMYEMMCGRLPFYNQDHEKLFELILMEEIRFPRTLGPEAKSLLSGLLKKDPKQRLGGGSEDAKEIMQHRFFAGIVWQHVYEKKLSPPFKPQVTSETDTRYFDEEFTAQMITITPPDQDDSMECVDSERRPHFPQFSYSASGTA
p70S6K, sequence (P23443 whole entry): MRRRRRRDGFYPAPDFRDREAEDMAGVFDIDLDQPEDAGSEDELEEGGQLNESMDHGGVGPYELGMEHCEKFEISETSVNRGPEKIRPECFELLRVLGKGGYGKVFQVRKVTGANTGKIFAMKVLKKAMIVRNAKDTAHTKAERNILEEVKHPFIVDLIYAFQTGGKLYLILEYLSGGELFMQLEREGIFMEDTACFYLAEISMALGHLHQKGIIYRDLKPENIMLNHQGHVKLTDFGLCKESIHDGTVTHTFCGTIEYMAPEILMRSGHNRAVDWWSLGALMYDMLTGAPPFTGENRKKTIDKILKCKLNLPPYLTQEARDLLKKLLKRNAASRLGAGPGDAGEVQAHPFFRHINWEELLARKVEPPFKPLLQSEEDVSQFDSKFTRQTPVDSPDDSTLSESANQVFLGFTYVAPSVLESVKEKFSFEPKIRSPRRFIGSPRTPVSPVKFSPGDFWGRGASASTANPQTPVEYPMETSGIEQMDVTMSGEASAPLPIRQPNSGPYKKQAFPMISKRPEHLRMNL

| Molecule | IC50 (AktK; Table 1, class symbols per key) | IC50 (p70S6K; Table 1, class symbols per key) | IC50 (AktK) | IC50 (p70S6K) |
| --- | --- | --- | --- | --- |
| FC(F)(F)c1cccnc1N1CCN(c2ncnc3[nH]nc(Br)c23)CC1 [Entry 135, 3-bromo-4-{4-[3-(trifluoromethyl)pyridin-2-yl]piperazin-1-yl}-1H-pyrazolo[3,4-d]pyrimidine] | ≥ 10 µM | 0.1 to 1 µM | – | – |
| COc1cccc(N2CCN(c3ncnc4[nH]nc(Br)c34)CC2)c1 [Entry 65, 3-bromo-4-{4-[3-(methyloxy)phenyl]piperazin-1-yl}-1H-pyrazolo[3,4-d]pyrimidine] | 1 to 10 µM | < 0.1 µM | – | – |
| CCc1n[nH]c2ncnc(N3CCN(c4cc(Br)cc(N)c4C)CC3)c12 [Entry 165, 5-bromo-3-[4-(3-ethyl-1H-pyrazolo[3,4-d]pyrimidin-4-yl)piperazin-1-yl]-2-methylaniline] | 0.1 to 1 µM | < 0.1 µM | – | – |
| Cc1c(OCCC2CCN(C)CC2)cc(Cl)cc1N1CCN(c2ncnc3[nH]nc(C(F)(F)F)c23)CC1 [Entry 91, 4-[4-(5-chloro-2-methyl-3-{[2-(1-methylpiperidin-4-yl)ethyl]oxy}phenyl)piperazin-1-yl]-3-(tri-fluoromethyl)-1H-pyrazolo[3,4-d]pyrimidine] | 0.1 to 1 µM | < 0.1 µM | – | – |
| CCc1n[nH]c2ncnc(N3CCN(c4cccc(OCCN(CC)CC)c4C)CC3)c12 [Entry 32, N,N-diethyl-2-({3-[4-(3-ethyl-1H-pyrazolo[3,4-d]pyrimidin-4-yl)piperazin-1-yl]-2-methylphenyl}oxy)ethanamine] | 1 to 10 µM | 0.1 to 1 µM | – | – |
| 3-bromo-4-{4-[5-{[2,3-difluoro-2-(fluorometh-yl)propyl]oxy}-2-methyl-3-(3-pyrrolidin-1-ylpropyl)phenyl]piperazin-1-yl}-1H-pyrazolo[3,4-d]pyrimidine [Entry 239] | < 0.1 µM | < 0.1 µM | – | – |
| Cc1ccc(Cl)cc1N1CCN(c2ncnc3[nH]nc(-c4ccccc4)c23)CC1 [Entry 327, 4-[4-(5-chloro-2-methylphenyl)piperazin-1-yl]-3-phenyl-1H-pyrazolo[3,4-d]pyrimidine] | – | – | 1 to 10 µM | < 0.1 µM |
| CCOc1ccc(N2CCN(c3ncnc4[nH]nc(Br)c34)CC2)cc1 [Entry 104, 3-bromo-4-{4-[4-(ethyloxy)phenyl]piperazin-1-yl}-1H-pyrazolo[3,4-d]pyrimidine] | ≥ 10 µM | 0.1 to 1 µM | – | – |

Other lines, results leading:

| IC50 (AktK; Table 1, class symbols per key) | IC50 (p70S6K; Table 1, class symbols per key) | IC50 (AktK) | IC50 (p70S6K) | Molecule |
| --- | --- | --- | --- | --- |
| < 0.1 µM | < 0.1 µM | – | – | Cc1c(NCCN2CCCC2)cc(C(=O)NC(C)(C)C)cc1N1CCN(c2ncnc3[nH]nc(Br)c23)CC1 [Entry 214, 3-[4-(3-bromo-1H-pyrazolo[3,4-d]pyrimidin-4-yl)piperazin-1-yl]-N-(1,1-dimethylethyl)-4-methyl-5-[(2-pyrrolidin-1-ylethyl)amino]benzamide] |
| – | – | 1 to 10 µM | < 0.1 µM | CCCc1n[nH]c2ncnc(N3CCN(c4cc(Cl)ccc4C)CC3)c12 [Entry 330, 4-[4-(5-chloro-2-methylphenyl)piperazin-1-yl]-3-propyl-1H-pyrazolo[3,4-d]pyrimidine] |
| – | – | ≥ 10 µM | 1 to 10 µM | Clc1ccc(N2CCN(c3ncnc4[nH]cnc34)CC2)cc1 [Entry 308, 6-[4-(4-chlorophenyl)piperazin-1-yl]-9H-purine] |
| 0.1 to 1 µM | < 0.1 µM | – | – | Cc1c(NCCN2CCCC2)cc(CO)cc1N1CCN(c2ncnc3[nH]nc(Br)c23)CC1 [Entry 268, {3-[4-(3-bromo-1H-pyrazolo[3,4-d]pyrimidin-4-yl)piperazin-1-yl]-4-methyl-5-[(2-pyrrolidin-1-ylethyl)amino]phenyl}methanol] |
| – | – | ≥ 10 µM | 1 to 10 µM | COc1ccc(N2CCN(c3ncnc4[nH]ccc34)CC2)cc1 [Entry 304, 4-{4-[4-(methyloxy)phenyl]piperazin-1-yl}-7H-pyrrolo[2,3-d]pyrimidine] |
| – | – | ≥ 10 µM | 0.1 to 1 µM | Cc1ccccc1N1CCN(c2ncnc3[nH]ncc23)CC1 [Entry 317, 4-[4-(2-methylphenyl)piperazin-1-yl]-1H-pyrazolo[3,4-d]pyrimidine] |
